Test results reported in patent US7071218B2, “N-substituted heterocycles for the treatment of hypercholesteremia, dyslipidemia and other metabolic disorders; cancer, and other diseases” (Incyte San Diego Incorporated, priority 2001, dated 2006).

Experiments:
[1] = tested on: PC-3 prostate cancer cells; assay: MTT anti-cancer assay, PC-3 prostate cancer cells; type: cell-based, human; details: PC-3, 6 days
From the text: (§1) The anti-cancer activity of the compounds of the invention herein have been tested in in vitro assays using a microculture assay with 3-(4,5-dimethylthiazol-2-yl)-2,5-diphenyltetrazolium bromide (“MTT”) a test well known to those skilled in the art. This assay has an advantage over in vivo assay in that results are obtained within a week as opposed to several months. The assay can be carried out in 96-well microtiter plates. The MTT assay is based on the production of a dark blue formazan product by dehydrogenase in the mitochondria of live tumor cells after exposure to drug for 6 days [M. C. […] Thus, only live cells are stained and can be measured at 595 nm. […]
(§2) Treatment: Before commencing drug treatment, cells were replenished with media containing 0.5% FCS. […] As an end point, the amount of surviving cells (Live cells) was measured using a standard […] assay (MTT based), and calculated as percentage of cells treated with vehicle (DMSO) alone (% control).
(§3) MTT assay: The assay is based on the cleavage of the yellow tetrazolium salt MTT to purple formazan crystals by dehydrogenase activity in active mitochondria. […] The formazan crystals formed are solubilized and the resulting colored solution is quantified using a scanning multiwell spectrophotometer. […]

[2] = tested on: human cancer cell lines (A549, MDA-MB-468, PC-3, Bx-PC3); assay: MTT anti-cancer assay, the other cancer cell lines of the panel; type: cell-based; details: cell lines other than PC-3 (A549, MDA-MB-468, Bx-PC3), compared to PC-3
From the text: as §1, §2, §3

For COc1cccc(/C=C2\SC(=S)N(CC(=O)O)C2=O)c1-c1cc2c(cc1C)C(C)(C)CCC2(C)C [Compound 9, {5-[3-Methoxy-2-(3,5,5,8,8-pentamethyl-5,6,7,8-tetrahydro-naphthalen-2-yl)-benzylidene]4-oxo-2-thioxo-thiazolidin-3-yl}-acetic acid], the anticancer effect [1] was “very potent anticancer effect” and the anticancer effect [2] was “less pronounced”.
